Laboratory results from patent US12527776B2, “Treatment of ciliopathies using inhibitors of glucosylceramide synthase (GCS)” (GENZYME CORPORATION, priority 2019, dated 2026).

Tests used:
Assay type in all cases: in vivo, human
[1] = Phase 1 studies: safety and tolerability; conditions: multiple ascending dose study, vs placebo, any dose
Protocol: In all studies, safety profile was assessed by monitoring treatment-emergent adverse events (TEAEs) through 10 days after last dose of study medication, including serious adverse events [SAEs]), ECG monitoring, laboratory values, and physical examinations.

[2] = tested on: plasma GL-1, GL-3, and GM3 concentrations; assay: Phase 1 Study 2: pharmacodynamic endpoints (plasma GL-1, GL-3, GM3)
Protocol: The study enrolled and randomized 36 healthy adults (19 men and 17 women) (n=9 each to group).
Pharmacodynamic endpoints (plasma GL-1, GL-3, and GM3 concentrations) were assessed on Days 1-5, 8, 11, 13, and 14, at 0 hours […]; and on Day 15, at 24 hours after the Day 14 dose.

[3] = Phase 1 Study 1 Part 2: PK with and without a high-fat meal; conditions: 5 mg single oral dose
Description: (§1) Study 1 was a 2-part single-center trial in healthy adult male volunteers.
Part 1 of the study enrolled and randomized 55 healthy men (placebo, n=14; 2-, 5-, 15, 25-, 50, and 100-mg doses, n=6 each; 150-mg dose, n=5). Eight healthy men participated in Part 2.
After a 7-day washout period, participants were crossed over to the other condition.

[4] = Phase 1 Study 1 Part 1: ascending single-dose pharmacokinetics in healthy volunteers
Description: Compound 2 is also known as venglustat.
as §1
Part 1 of the study enrolled and randomized 55 healthy men (placebo, n=14; 2-, 5-, 15, 25-, 50, and 100-mg doses, n=6 each; 150-mg dose, n=5). Eight healthy men participated in Part 2. […]

[5] = across the 3 dose groups (5, 10, 20 mg once daily)

CC(C)(NC(=O)O[C@@H]1CN2CCC1CC2)c1csc(-c2ccc(F)cc2)n1 [Compound 2, (S)-quinuclidin-3-yl 2-(2-(4-fluorophenyl)thiazol-4-yl)propan-2-ylcarbamate]
ECG parameters [1]: no ECG parameters changed statistically significantly | Mean estimated plasma GL-1 reductions from baseline attributable to Ctrough ([2]; 5 mg group, Ctrough 19.0 ng/mL): 67.0% | Mean estimated plasma GL-1 reductions from baseline attributable to Ctrough ([2]; 10 mg group, Ctrough 47.5 ng/mL): 74.4% | Mean estimated plasma GL-1 reductions from baseline attributable to Ctrough ([2]; 20 mg group, Ctrough 69.9 ng/mL): 76.3% | subjects with GL-1 below LLOQ ([2]; Day 15, 5 mg group (n=9)): 3 subjects | subjects with GL-3 below LLOQ ([2]; Day 15, 5 mg group (n=9)): 9 subjects | Mean calculated GL-1 reductions from baseline ([2]; Day 15, 5 mg once daily): 41.9% | subjects with GL-1 below LLOQ ([2]; Day 15, 10 mg group (n=9)): 5 subjects | subjects with GL-3 below LLOQ ([2]; Day 15, 10 mg group (n=9)): 7 subjects | subjects with GM3 below LLOQ ([2]; Day 15, 10 mg group (n=9)): 1 subjects | Mean calculated GL-1 reductions from baseline ([2]; Day 15, 10 mg once daily): 69.6% | subjects with GL-1 below LLOQ ([2]; Day 15, 20 mg group (n=9)): 9 subjects | subjects with GL-3 below LLOQ ([2]; Day 15, 20 mg group (n=9)): 9 subjects | subjects with GM3 below LLOQ ([2]; Day 15, 20 mg group (n=9)): 2 subjects | Mean calculated GL-1 reductions from baseline ([2]; Day 15, 20 mg once daily): 74.6% | plasma GL-1 levels vs baseline [2, 5]: decreased from baseline time- and dose-dependently | plasma GM3 levels vs baseline [2, 5]: decreased from baseline time- and dose-dependently | Day on which maximal sustained GM3 decreases started ([2]; all dose groups): 13 days | effect of high-fat meal on exposure compared with fasting [3]: no effect | CL/F, Geometric mean ([4]; single oral dose 2 mg): 6.3 L/h | CL/F, Mean ([4]; single oral dose 2 mg): 6.43 L/h | CL/F, Geometric mean ([4]; single oral dose 5 mg): 5.8 L/h | CL/F, Mean ([4]; single oral dose 5 mg): 5.86 L/h | CL/F, Geometric mean ([4]; single oral dose 15 mg): 5.6 L/h | CL/F, Mean ([4]; single oral dose 15 mg): 5.85 L/h | CL/F, Geometric mean ([4]; single oral dose 25 mg): 5.0 L/h | CL/F, Mean ([4]; single oral dose 25 mg): 5.18 L/h | CL/F, Geometric mean ([4]; single oral dose 50 mg): 5.5 L/h | CL/F, Mean ([4]; single oral dose 50 mg): 5.75 L/h | CL/F, Geometric mean ([4]; single oral dose 100 mg): 5.3 L/h | CL/F, Mean ([4]; single oral dose 100 mg): 5.38 L/h | CL/F, Geometric mean ([4]; single oral dose 150 mg): 5.6 L/h | CL/F, Mean ([4]; single oral dose 150 mg): 5.80 L/h | median time of maximal plasma concentration (Cmax) ([4]; single oral doses of 2 to 150 mg): 3 to 5.5 h
